The values below come from EP0537947A1, “Naphthoquinone derivatives for the treatment of parasitic infections” (THE WELLCOME FOUNDATION LIMITED, priority 1991, dated 1993).

Where a name gives a salt, the structure may show the parent alone. Read-outs that look alike come from different tables or passages of the source.

One series relates to Plasmodium yoelii. The series can be described thus: In vivo activity against Plasmodium yoelii in mice (modified 4-day suppressive test). The method, then:
Compounds A and B were administered orally and intravenously, and compound (I) was administered orally only, in the manner described below.
The test method is a modified version of the 4-day suppressive test. The YM strain of P.yoelii was maintained in mice by twice weekly passage. Infected blood was collected and diluted with normal saline to give an inoculum of 3x10⁶ parasitized enythrocytes/ml. On the morning of Day 1 the test animals (male CD-1 mice weighing 18-20g) were infected intravenously via the tail vein with 0.1ml of inoculum/mouse.
Test compounds A, B and (I) were formulated by ball milling in 0.25% celacol with stainless steel balls. The total requirement was formulated at the beginning of a test and thereafter stored at 4°C.
Each test compound was administered orally (p.o.) to four or more usually five groups of mice, each group receiving a different dose level (dilution). A further group of mice was administered celacol only, as a control (ie. a total of 30 mice are used to obtain each ED₅₀). The mice were dosed orally in the late afternoon of Day 1 and in the early morning and late afternoon of days 2, 3 and 4, giving a total of seven doses in four days or 24 hours post-infection i.e. on day 2 when given as a single dose.
I.v. formulations of test Compounds A and B were prepared by dissolving the compound in water immediately before use, and administered via the tail vein as a single dose 24 hours post-infection, i.e. on day 2.
On the morning of day 5 smears of tail blood were prepared from each mouse and the parasitaemia counted. Data were analysed to yield ED₅₀ values by the best fit to a sigmoidal dose response curve.

Another series is described as follows: Solubility in water. It counts as physicochemical. Particulars: statement in words.
The mark [1] stands for this setting: Plasmodium yoelii, po, dosing schedule 1 x p.o. (single dose 24 hours post-infection), YM strain of P.yoelii, male CD-1 mice, parasitaemia on day 5, read-out: ED50.

Turning to `O=C1C(OP(=O)(O)O)=C([C@H]2CC[C@H](c3ccc(Cl)cc3)CC2)C(=O)c2ccccc21` [Compound (B), 3-[trans--4-(4-Chlorophenyl)cyclohexyl]-1,4-dioxo-2-naphthylphosphate N-methylglucosamine salt], the ED50 (usually the dose at which the effect has come halfway, by size or by number of responders) in the series with Plasmodium yoelii (Plasmodium yoelii, iv, 1 x i.v., calculated in terms of the amount of compound (I) administered, read-out: Weight adjusted ED50) is 0.12 mg/kg; in the series on Plasmodium yoelii (Plasmodium yoelii, iv, dosing schedule 1 x i.v. (single dose 24 hours post-infection, dissolved in water), YM strain of P.yoelii, male CD-1 mice, parasitaemia on day 5, read-out: ED50), 0.27 mg/kg; with Plasmodium yoelii (Plasmodium yoelii, po, 1 x p.o., calculated in terms of the amount of compound (I) administered, read-out: Weight adjusted ED50), 0.1 mg/kg; with Plasmodium yoelii (setting [1]) it was 0.23 mg/kg. Besides, in “Solubility in water”, the solubility in water entry was “readily soluble in cold water”.
For the compound “3-[trans-4-(4-Chlorophenyl)cyclohexyl]-1,4-dioxo-2-naphthylphosphate bis diethanolamine salt [Compound (A)]”, in the series with Plasmodium yoelii (7 x p.o., calculated in terms of the amount of compound (I) administered), the “Weight adjusted ED50” value is 0.056 mg/kg. Besides, the ED50 in the series on Plasmodium yoelii (dosing schedule 7 x p.o. (seven doses in four days), YM strain of P.yoelii, male CD-1 mice, parasitaemia on day 5) is recorded as 0.1 mg/kg.
As to `O=C1C(O)=C([C@H]2CC[C@H](c3ccc(Cl)cc3)CC2)C(=O)c2ccccc21` [Compound (I), 2-[trans-4-(4-Chlorophenyl)cyclohexyl]-3-hydroxy-1,4-naphthoquinone, reference compound], the 50% effective dose (ED50) turned out to be 0.09 mg/kg with Plasmodium yoelii (setting [1]) and 0.03 mg/kg in the series with Plasmodium yoelii (Plasmodium yoelii, po, dosing schedule 7 x p.o. (seven doses in four days), YM strain of P.yoelii, male CD-1 mice, parasitaemia on day 5, read-out: ED50).
